Columns and labels:
[1] = system: COLO 205 human colon cancer cells; experiment: cell viability, ATPLite assay, serum-free condition; type: cell-based; conditions: for effect on cell viability: 48 h; for cells killed: incubation time (24 or 48 h) not given
Method: (§1) Cell viability analysis: To examine the effect of the serum, the cells (2×10^4) were plated onto well of a 96-well microplate and cultured in complete culture medium at 37° C. for 24 h, washed with serum-free medium, and further incubated in 100 μl of complete medium or serum-free medium at 37° C. for the indicated times. Cell viability was assessed by measurement of cellular ATP levels using ATPlite™-M luminescence assay system (PerkinElmer, Inc., Waltham, Mass.) according to the manufacturer's instructions, and determined as a percentage relative to the luminescence value of cells, which were cultured in complete medium, used as a control. The assay of cell viability was repeated in triplicate experiments. Data were statistically analyzed by the Student t test. In case of the Student t test, if variance of homogeneity was rejected (P<0.05 by F test), the Welch test was applied. Probability values (P-values) less than 0.05 were considered to be statistically significant. All P-values were rounded to four decimal places.
(§2) To evaluate the effect of TRA-8 in serum-free condition, the cells were cultured as described above, washed with serum-free medium and treated with or without TRA-8 or chemotherapeutic agents in 100 μl of serum-free medium at 37° C. for the indicated times. Cell viability was assessed using ATPLite™ assay (PerkinElmer, Inc., Waltham, Mass.) and determined as a percentage relative to the luminescence value of untreated cells used as a control. The assay of cell viability was repeated in triplicate experiments.

[2] = system: COLO 205 tumors; experiment: COLO 205 xenograft model, tumor size; type: in vivo, athymic nude mice; conditions: TRA-8 10 mg/kg intraperitoneally days 16 and 20; CPT-11 33 mg/kg intravenously days 17 and 21
Method: Preparation of sera from tumor-bearing mice. COLO 205 cells (1×10^7) were inoculated subcutaneously into athymic nude mice on day 0. The mice were grouped randomly. Each of the groups consisted of 3 mice. TRA-8 (10 mg/kg) was administered intraperitoneally to mice on days 16 and 20. CPT-11 (33 mg/kg) was administered intravenously to mice on days 17 and 21. Length and width of solid tumors were measured twice weekly. Tumor volume (mm^3) was calculated as axb^2/2, where a and b are the length and the width (mm) of the tumor, respectively. Tumor size was determined as a percentage relative to the tumor volume on day 16. Sera were obtained from the tumor-bearing mice on day 23.

[3] = system: WiDr human colon cancer cells; experiment: cell viability, ATPLite assay, serum-free condition; type: cell-based; conditions: for cells killed: incubation time (24 or 48 h) not given
Method: as §1, §2

## CCc1c2c(nc3ccc(OC(=O)N4CCC(N5CCCCC5)CC4)cc13)-c1cc3c(c(=O)n1C2)COC(=O)[C@]3(O)CC [CPT-11]
[1]; 50 μM agent
  effect on cell viability: significant effect
  cells killed: 71%
[2]
  antitumor efficacy (tumor size): not antitumor effects

## O=C1[O][Pt]2([NH][C@@H]3CCCC[C@H]3[NH]2)[O]C1=O [oxaliplatin]
[1]; 50 μM agent
  effect on cell viability: affected cell viability
  cells killed: 41%
[3]; 50 μM oxaliplatin, 24 h
  effect on cell viability: significant effect
[3]; 50 μM oxaliplatin, 48 h
  effect on cell viability: affected cell viability
[3]; 50 μM oxaliplatin
  cells killed: 99%

## CC(=O)O[C@H]1C(=O)[C@@]2(C)[C@H]([C@H](OC(=O)c3ccccc3)[C@]3(O)C[C@H](OC(=O)[C@H](O)[C@@H](NC(=O)c4ccccc4)c4ccccc4)C(C)=C1C3(C)C)[C@]1(OC(C)=O)CO[C@@H]1C[C@@H]2O [paclitaxel]
[1]; 1 μM paclitaxel
  effect on cell viability: affected cell viability
  cells killed: 62%
[3]; 1 μM paclitaxel, 48 h
  effect on cell viability: affected cell viability
[3]; 1 μM paclitaxel
  cells killed: 72%

— patent publication US8119355B2, “Biomarkers for cancer sensitivity and uses thereof” (The UAB Research Foundation, priority 2006, dated 2012)
